Our source for the Ki values is ChEMBL document CHEMBL2034919 (Eur J Med Chem, 2012).

The target in test [1] is T1, 5-hydroxytryptamine receptor 1A (Homo sapiens, UniProt P08908).
T1 sequence (P08908 whole entry): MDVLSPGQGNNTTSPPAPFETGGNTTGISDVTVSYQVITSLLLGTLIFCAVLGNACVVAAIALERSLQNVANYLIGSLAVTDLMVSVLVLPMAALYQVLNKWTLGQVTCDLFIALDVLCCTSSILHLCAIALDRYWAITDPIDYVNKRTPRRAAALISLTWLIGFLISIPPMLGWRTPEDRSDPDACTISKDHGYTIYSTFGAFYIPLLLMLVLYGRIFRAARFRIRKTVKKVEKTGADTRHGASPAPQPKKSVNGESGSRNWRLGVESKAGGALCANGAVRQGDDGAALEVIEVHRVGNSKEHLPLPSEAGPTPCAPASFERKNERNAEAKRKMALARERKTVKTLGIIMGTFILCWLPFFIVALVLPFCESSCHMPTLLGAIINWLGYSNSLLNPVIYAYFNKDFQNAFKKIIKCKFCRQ
Description: Displacement of [3H]8-OH-DPAT from human 5HT1A receptor by liquid scintillation counting

The target of test [2] is T2, 5-hydroxytryptamine receptor 2C (Homo sapiens, UniProt P28335).
T2 sequence (P28335 whole entry): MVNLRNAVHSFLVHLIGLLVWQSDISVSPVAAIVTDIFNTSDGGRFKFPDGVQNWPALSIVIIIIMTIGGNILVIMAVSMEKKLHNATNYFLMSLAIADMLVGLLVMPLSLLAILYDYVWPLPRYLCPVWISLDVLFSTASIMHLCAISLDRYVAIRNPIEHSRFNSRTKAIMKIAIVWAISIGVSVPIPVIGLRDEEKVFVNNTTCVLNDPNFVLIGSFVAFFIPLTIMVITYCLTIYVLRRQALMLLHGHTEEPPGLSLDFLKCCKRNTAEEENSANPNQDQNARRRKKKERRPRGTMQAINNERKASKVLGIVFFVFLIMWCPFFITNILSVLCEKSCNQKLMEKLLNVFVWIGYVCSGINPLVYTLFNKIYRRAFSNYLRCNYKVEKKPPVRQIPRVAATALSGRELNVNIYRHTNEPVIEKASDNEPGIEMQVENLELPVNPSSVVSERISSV
Description: (§1) Binding affinity to human 5HT2C receptor by radioligand displacement assay

Test [3] concerns the target Sodium-dependent serotonin transporter (Homo sapiens, UniProt P31645).
Description: Displacement of [3H]Citalopram from human SERT by liquid scintillation counting
Test [4] addresses 5-hydroxytryptamine receptor 7 (Homo sapiens, UniProt P34969).
Description: Displacement of [3H]LSD from human 5HT7 receptor by liquid scintillation counting
Another test addresses T3, D(4) dopamine receptor (Rattus norvegicus, UniProt P30729).
T3 sequence (P30729 whole entry): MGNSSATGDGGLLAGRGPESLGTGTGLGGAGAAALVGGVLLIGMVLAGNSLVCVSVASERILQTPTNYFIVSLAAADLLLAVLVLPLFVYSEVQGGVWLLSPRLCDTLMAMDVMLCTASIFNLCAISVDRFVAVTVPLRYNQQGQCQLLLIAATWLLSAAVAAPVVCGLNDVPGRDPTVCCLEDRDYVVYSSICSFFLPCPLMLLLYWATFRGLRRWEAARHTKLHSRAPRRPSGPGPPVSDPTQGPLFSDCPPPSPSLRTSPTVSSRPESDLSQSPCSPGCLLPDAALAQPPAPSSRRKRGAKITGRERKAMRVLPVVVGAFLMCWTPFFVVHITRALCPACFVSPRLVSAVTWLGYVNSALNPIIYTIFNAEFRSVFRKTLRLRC

Test [5] addresses 5-hydroxytryptamine receptor 2A (Homo sapiens, UniProt P28223).
Description: Displacement of [3H]Ketanserin from human 5HT2A receptor by liquid scintillation counting
In a further test the target is D(2) dopamine receptor (Homo sapiens, UniProt P14416).
Test [6] has as its target T2, 5-hydroxytryptamine receptor 2C. This is another data set of the same source.
Description: as §1
Test [7] concerns the target Sodium-dependent noradrenaline transporter (Homo sapiens, UniProt P23975).
Description: Displacement of [3H]Nisoxetine from human NET by liquid scintillation assay
The target in test [8] is Sodium-dependent dopamine transporter (Homo sapiens, UniProt Q01959).
Description: Displacement of [3H]GBR12935 from human DAT by liquid scintillation assay
A further test concerns the target Histamine H1 receptor (Homo sapiens, UniProt P35367).

Sequence of Sodium-dependent serotonin transporter (P31645 whole entry): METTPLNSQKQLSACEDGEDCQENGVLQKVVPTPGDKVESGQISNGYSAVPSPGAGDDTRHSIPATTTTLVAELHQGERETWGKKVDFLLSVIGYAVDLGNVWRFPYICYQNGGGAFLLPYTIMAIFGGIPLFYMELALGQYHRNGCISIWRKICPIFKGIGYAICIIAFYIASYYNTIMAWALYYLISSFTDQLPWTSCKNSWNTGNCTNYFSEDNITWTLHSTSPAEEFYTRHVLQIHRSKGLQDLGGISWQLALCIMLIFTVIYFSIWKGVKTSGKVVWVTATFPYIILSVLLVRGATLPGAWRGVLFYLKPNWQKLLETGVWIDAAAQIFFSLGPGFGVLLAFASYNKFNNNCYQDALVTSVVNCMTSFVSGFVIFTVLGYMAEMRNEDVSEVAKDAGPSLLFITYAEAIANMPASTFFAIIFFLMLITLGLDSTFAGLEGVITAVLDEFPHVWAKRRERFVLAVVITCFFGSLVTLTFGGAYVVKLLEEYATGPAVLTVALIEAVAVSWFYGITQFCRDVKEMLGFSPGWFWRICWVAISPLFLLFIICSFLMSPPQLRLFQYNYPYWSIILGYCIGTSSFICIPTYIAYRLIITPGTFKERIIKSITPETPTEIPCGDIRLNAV
Sequence of 5-hydroxytryptamine receptor 2A (P28223 whole entry): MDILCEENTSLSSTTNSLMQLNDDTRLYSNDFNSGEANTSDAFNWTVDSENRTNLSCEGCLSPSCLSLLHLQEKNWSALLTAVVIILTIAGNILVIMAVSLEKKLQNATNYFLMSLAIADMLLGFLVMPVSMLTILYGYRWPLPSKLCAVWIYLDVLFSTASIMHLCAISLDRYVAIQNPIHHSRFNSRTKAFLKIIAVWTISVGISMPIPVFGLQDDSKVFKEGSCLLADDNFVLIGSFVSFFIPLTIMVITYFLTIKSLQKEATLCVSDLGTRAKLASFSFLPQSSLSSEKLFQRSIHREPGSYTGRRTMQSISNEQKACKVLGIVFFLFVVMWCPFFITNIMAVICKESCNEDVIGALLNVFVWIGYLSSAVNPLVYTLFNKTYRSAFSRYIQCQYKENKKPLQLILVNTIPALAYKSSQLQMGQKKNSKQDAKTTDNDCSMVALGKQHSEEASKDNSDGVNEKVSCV
Sequence of 5-hydroxytryptamine receptor 7 (P34969 whole entry): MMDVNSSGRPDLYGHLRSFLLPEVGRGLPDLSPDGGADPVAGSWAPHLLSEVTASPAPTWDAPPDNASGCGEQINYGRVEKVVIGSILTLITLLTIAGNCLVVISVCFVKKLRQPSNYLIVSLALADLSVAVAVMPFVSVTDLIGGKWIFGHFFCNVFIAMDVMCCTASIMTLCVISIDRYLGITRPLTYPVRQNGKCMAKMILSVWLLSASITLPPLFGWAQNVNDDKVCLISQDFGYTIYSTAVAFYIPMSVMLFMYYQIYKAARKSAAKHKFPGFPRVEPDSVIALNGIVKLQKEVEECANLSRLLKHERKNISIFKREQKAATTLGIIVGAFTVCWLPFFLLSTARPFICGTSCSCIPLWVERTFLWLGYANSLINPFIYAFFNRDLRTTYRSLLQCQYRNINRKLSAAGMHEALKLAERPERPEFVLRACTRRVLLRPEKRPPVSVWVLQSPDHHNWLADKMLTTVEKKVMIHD
Sequence of D(2) dopamine receptor (P14416 whole entry): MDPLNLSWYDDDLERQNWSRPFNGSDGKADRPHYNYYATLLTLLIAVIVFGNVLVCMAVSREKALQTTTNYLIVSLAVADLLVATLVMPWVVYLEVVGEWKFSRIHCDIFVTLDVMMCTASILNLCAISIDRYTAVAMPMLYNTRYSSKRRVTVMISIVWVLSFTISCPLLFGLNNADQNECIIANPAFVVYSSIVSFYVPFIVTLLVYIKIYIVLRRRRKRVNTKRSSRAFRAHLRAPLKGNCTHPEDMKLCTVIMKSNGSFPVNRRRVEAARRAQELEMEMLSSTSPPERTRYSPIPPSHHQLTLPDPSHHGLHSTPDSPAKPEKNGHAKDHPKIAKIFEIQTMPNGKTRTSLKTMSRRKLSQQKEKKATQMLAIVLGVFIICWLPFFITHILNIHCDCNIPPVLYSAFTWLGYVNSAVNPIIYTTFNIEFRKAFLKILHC
Sequence of Sodium-dependent noradrenaline transporter (P23975 whole entry): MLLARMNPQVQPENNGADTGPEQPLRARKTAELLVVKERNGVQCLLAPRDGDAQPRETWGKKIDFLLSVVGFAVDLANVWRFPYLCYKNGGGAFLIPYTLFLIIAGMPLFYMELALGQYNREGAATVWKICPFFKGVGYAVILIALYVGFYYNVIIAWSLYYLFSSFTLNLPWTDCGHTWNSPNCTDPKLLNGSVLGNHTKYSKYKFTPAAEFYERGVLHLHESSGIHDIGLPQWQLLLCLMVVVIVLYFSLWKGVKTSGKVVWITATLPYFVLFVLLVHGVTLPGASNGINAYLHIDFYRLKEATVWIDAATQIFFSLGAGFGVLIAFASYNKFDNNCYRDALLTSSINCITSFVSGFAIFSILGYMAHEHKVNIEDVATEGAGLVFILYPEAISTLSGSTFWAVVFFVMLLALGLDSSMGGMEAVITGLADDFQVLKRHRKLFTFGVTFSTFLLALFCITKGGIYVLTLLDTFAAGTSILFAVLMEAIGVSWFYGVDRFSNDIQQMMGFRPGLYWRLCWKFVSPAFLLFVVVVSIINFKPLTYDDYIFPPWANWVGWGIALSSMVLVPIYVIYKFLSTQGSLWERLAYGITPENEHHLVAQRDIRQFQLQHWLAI
Sequence of Histamine H1 receptor (P35367 whole entry): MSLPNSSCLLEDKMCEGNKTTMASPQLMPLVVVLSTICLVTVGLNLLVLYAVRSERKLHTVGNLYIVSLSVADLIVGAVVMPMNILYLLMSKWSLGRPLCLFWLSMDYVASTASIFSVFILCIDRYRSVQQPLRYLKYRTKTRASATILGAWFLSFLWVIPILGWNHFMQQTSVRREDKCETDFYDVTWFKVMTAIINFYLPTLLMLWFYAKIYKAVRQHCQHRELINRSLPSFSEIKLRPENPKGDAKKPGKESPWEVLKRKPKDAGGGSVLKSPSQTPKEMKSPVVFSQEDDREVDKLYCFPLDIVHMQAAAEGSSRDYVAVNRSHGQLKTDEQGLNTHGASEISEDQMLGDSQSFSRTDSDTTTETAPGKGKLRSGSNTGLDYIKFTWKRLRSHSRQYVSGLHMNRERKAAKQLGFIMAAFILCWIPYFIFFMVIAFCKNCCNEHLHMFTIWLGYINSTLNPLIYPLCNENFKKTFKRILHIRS
Sequence of Sodium-dependent dopamine transporter (Q01959 whole entry): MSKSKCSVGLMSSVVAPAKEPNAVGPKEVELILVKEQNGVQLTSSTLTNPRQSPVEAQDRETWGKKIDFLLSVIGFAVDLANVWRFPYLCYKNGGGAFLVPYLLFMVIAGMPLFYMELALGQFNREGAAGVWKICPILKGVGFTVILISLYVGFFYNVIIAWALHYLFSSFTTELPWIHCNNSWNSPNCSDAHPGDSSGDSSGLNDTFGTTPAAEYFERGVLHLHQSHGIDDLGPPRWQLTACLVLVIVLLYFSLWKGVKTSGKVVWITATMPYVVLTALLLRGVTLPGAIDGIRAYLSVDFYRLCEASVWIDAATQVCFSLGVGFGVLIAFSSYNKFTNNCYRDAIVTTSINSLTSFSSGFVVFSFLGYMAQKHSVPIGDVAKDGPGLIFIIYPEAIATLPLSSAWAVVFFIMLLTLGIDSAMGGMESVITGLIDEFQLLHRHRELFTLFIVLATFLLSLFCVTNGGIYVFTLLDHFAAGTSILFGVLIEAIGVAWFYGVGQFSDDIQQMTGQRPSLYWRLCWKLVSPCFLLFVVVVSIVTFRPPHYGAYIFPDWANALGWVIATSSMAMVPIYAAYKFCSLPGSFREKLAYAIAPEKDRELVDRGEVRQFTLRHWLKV
Description for D(2) dopamine receptor: Displacement of [3H]N-methylspiperone from human dopamine D2 receptor by liquid scintillation counting
Description for D(4) dopamine receptor: Displacement of [3H]N-methylspiperone from rat dopamine D4 receptor by liquid scintillation counting
Description for Histamine H1 receptor: Displacement of [3H]Pyrilamine from human H1 histamine receptor by liquid scintillation assay

In the case of `O=C(CCCCN1CCN(c2ncccn2)CC1)c1nc2ccccc2s1`, the Ki (commonly the dissociation constant of the complex between target and ligand, obtained from inhibition or displacement) in [1] is 3.6 nM; in [2], “Not Active”; in test [3] it was “Not Active”.
Consider `OC1(c2ccc(Cl)cc2)CCN(CCCCc2nc3ccccc3s2)CC1`, for which the Ki in [4] (read-out: Ki) was 983 nM; on D(4) dopamine receptor (read-out: Ki) it was 140 nM; in test [5], 4260 nM; at D(2) dopamine receptor, 201 nM; in test [1] it was 771 nM; in [2], “Not Active”. Also, in [3] (read-out: Ki), the Ki was 922 nM.
For `Clc1ccc(N2CCCN(CCCc3nc4ccccc4s3)CC2)cc1`, the Ki in [4] (read-out: Ki) was 2060 nM; in test [2], “Not Active”; in [3] (read-out: Ki), 34 nM.
As to `O=C(CCCN1CCN(c2ccccc2)CC1)c1nc2ccccc2s1`, the Ki entry in test [4] was “Not Active”; on D(4) dopamine receptor, “Not Active”; in [5], over 10000 nM; at D(2) dopamine receptor it was over 10000 nM; in [1], 350 nM; in test [2] it was “Not Active”. The Ki in [3] (read-out: Ki) was over 10000 nM.
On D(2) dopamine receptor, `N#Cc1ccc2[nH]cc(CCCCN3CCN(c4ccc5oc(C(N)=O)cc5c4)CC3)c2c1` [VILAZODONE] yielded a Ki of 666 nM.
As for `O=C(CCCN1CCC(c2ccccc2)CC1)c1nc2ccccc2s1`, the Ki on D(4) dopamine receptor (read-out: Ki) is 44.4 nM; at D(2) dopamine receptor, 530 nM; in [1] it was 85 nM; in [2], “Not Active”.
Regarding `O=C(CCCCN1CCC(n2c(=O)[nH]c3cc(Cl)ccc32)CC1)c1nc2ccccc2s1`, the Ki was 1710 nM on D(4) dopamine receptor (read-out: Ki); 1560 nM in test [5]; 217 nM on D(2) dopamine receptor; 252 nM in test [1]; “Not Active” in [2]; 565 nM in test [3] (read-out: Ki).
For the molecule `Clc1ccc(N2CCN(CCCCc3nc4ccccc4s3)CC2)cc1`, the Ki in test [4] (read-out: Ki) is 329 nM; on D(4) dopamine receptor (read-out: Ki) it was 4 nM; in test [5], 132 nM; on D(2) dopamine receptor, 219 nM; in test [6], 6210 nM; in [1], 90.5 nM. Further, the inhibition constant (Ki) in [3] (read-out: Ki) turned out to be 166 nM.
As for `O=C(CCCN1CCCN(c2ccc(Cl)cc2)CC1)c1nc2ccccc2s1`, the Ki in [4] (read-out: Ki) is 356 nM; in test [3] (read-out: Ki), 5.3 nM.
The like results for `Clc1ccc(N2CCCN(CCCCc3nc4ccccc4s3)CC2)cc1` were, in that order, 413 nM and 65 nM.
In the case of `O=C(CCCCN1CCN(c2ccc(Cl)cc2)CC1)c1nc2ccccc2s1`, the Ki is 2920 nM in [4] (read-out: Ki); over 10000 nM in test [7]; 100 nM at D(4) dopamine receptor (read-out: Ki); 4740 nM in test [8]; 523 nM in [5]; 4790 nM at D(2) dopamine receptor. Moreover, the Ki at Histamine H1 receptor was 46 nM; in test [1], 28.3 nM; in test [2], “Not Active”; in [3] (read-out: Ki) it was 81 nM.
Take `c1cnc(N2CCN(CCCCc3nc4ccccc4s3)CC2)nc1`: the Ki is 229 nM in [4] (read-out: Ki); 0.8 nM at D(4) dopamine receptor (read-out: Ki); 224 nM in test [5]; over 10000 nM in test [6]; “Not Active” in [3].
With `O=C(CCCCN1CCC2(CC1)C(=O)NCN2c1ccccc1)c1nc2ccccc2s1`, the Ki was 518 nM in test [4] (read-out: Ki); 162 nM at D(4) dopamine receptor (read-out: Ki); 3720 nM in test [5]; 103 nM in test [1]; “Not Active” in test [2]; 284 nM in [3] (read-out: Ki).
For `O=C(CCCN1CCN(c2ccc(Cl)cc2)CC1)c1nc2ccccc2s1`, the Ki result is “Not Active” in test [4]; 342 nM at D(4) dopamine receptor (read-out: Ki); 2000 nM in test [5]; 8360 nM on D(2) dopamine receptor; over 10000 nM in [1]; “Not Active” in test [2]. In test [3] (read-out: Ki), the Ki worked out at 491 nM.
Turning to `O=C(CCCN1CCN(c2ncccn2)CC1)c1nc2ccccc2s1`, the inhibitory constant (Ki) was 51.5 nM at D(4) dopamine receptor (read-out: Ki), 63 nM in [1], “Not Active” in test [2] and “Not Active” in test [3].
Turning to `c1ccc2c(c1)CN(CCCCc1nc3ccccc3s1)C2`, the Ki in test [4] (read-out: Ki) was 211 nM; on D(4) dopamine receptor (read-out: Ki) it was 141 nM; in test [5] it was over 10000 nM; on D(2) dopamine receptor, 990 nM; in test [1], 111 nM; in test [2], “Not Active”. In [3] (read-out: Ki), the Ki came out at 186 nM.
Consider `Clc1ccc(N2CCN(CCCc3nc4ccccc4s3)CC2)cc1`, for which the Ki came out at 790 nM in [4] (read-out: Ki); 31 nM on D(4) dopamine receptor (read-out: Ki); 36 nM in [5]; 2320 nM on D(2) dopamine receptor; 4650 nM in [6]; 312 nM in test [1]. The Ki in [3] (read-out: Ki) stood at 1180 nM.
Turning to `O=C(CCCCN1CCN(c2ccccc2)CC1)c1nc2ccccc2s1`, the figures for the inhibition constant Ki (on D(4) dopamine receptor (read-out: Ki); in test [1]) were 105 nM and 3.6 nM, respectively.
Turning to `O=C(CCCCN1CCCN(c2ccc(Cl)cc2)CC1)c1nc2ccccc2s1`, the Ki was found to be 2810 nM in test [4] (read-out: Ki) and 65 nM in test [3] (read-out: Ki).
In the case of `c1ccc2c(c1)CCN(CCCCc1nc3ccccc3s1)C2`, the Ki in test [4] (read-out: Ki) came to 35.6 nM; at D(4) dopamine receptor (read-out: Ki), 65.5 nM; in test [5], 3810 nM; at D(2) dopamine receptor it was 30.8 nM; in test [6], 6270 nM; in [1], 5.1 nM. Also, in test [3] (read-out: Ki), the Ki is 1320 nM.
With `O=C(CCCCN1Cc2ccccc2C1)c1nc2ccccc2s1`, the results for the Ki (at D(4) dopamine receptor (read-out: Ki); in [5]; in test [2]) were 512 nM, over 10000 nM and “Not Active”, respectively.
Regarding `O=C(CCCCN1CCC(c2ccccc2)CC1)c1nc2ccccc2s1`, the inhibitory constant (Ki) was 107 nM in test [4] (read-out: Ki); 49 nM in [7]; 180 nM at D(4) dopamine receptor (read-out: Ki); 3.4 nM in test [5]; 642 nM at D(2) dopamine receptor; 3740 nM in test [6]. In addition, the inhibition constant (Ki) at Histamine H1 receptor amounted to 52 nM; in test [1] it was 7.3 nM; in [3] (read-out: Ki), 64 nM.
